Experimental findings from patent US8063049B2, “Inhibitors of MEK” (Ardea Biosciences, Inc., priority 2007, dated 2011) are described below.

Assay [1] deals with phosphorylated ERK in MDA-MB-231 breast cancer cells. As to the kind of experiment: Western blotting for phosphorylated ERK in EGF-stimulated MDA-MB-231 cells. To be noted: Homo sapiens, 30 min compound, 100 ng/ml EGF for 5 min, phospho-ERK Western blot. The class given is cell-based. On the procedure:
Effects of compounds in the cell can be determined by Western blotting for phosphorylated ERK. MDA-MB-231 breast cancer cells are plated in a 48 well plate at 20,000 cells per well and are grown in a 37° humidified CO2 incubator. The following day, the growth media (DMEM+10% fetal bovine serum) is removed and replaced with starve media (DMEM+0.1% fetal bovine serum). Cells are incubated in the starve media for sixteen hours and then treated with a range of compound concentrations for thirty minutes.
After incubation with compound, cells are stimulated with 100 ng/ml EGF for five minutes. The cells are then lysed and analyzed by Western blot using a monoclonal antibody raised to phosphorylated ERK. The signal is amplified using a secondary antibody conjugated to a near-IR dye and detected on a Licor Odyssey scanner.
In general terms: Immunoblotting shows a protein as a band on a membrane.

Assay [2] has as its target T1, Human GST-MEK1CA (constitutively active MEK1, Ser218Asp and Ser222Asp) (Homo sapiens, UniProt Q02750, S218D/S222D).
T1 construct: GST; made in house; host or cells: Escherichia coli
Briefly: MEK1 enzymatic activity assay (33P incorporation, MEK1CA/ERK2/MBP). It counts as biochemical. To be noted: MEK1CA with ERK2, MBP and [γ33P]ATP; 30 min preincubation, 60 min reaction. The text has this:
Materials and preparation of reagents: Human GST-MEK1 and the constitutively […] active allele GST-MEK1^CA (harboring the mutations Ser218Asp and Ser222Asp) can be subcloned into the yeast expression vector pGEM4Z (Promega, Madison, Wis.) from the wild type human MEK1 cDNA. GST-MEK1CA was expressed in Escherichia coli and can be partially purified using Glutathione Sepharose 4B affinity resin (Amersham Pharmacia Biotech, Piscataway, N.J.). The ERK2 allele can be subcloned from MAPK2/Erk2 cDNA (wild type) in […] pUSEamp (Upstate Biotechnology, Inc., Waltham, Mass.) into the vector pET21a (Novagen, Madison, Wis.) resulting in an N-terminal histidine-tagged mouse ERK2 allele. ERK2 can be expressed and purified to homogeneity [Zhang, 1993 #33]. Myelin basic protein (MBP) can be purchased from Gibco BRL (Rockville, Md.). EasyTides adenosine 5′-triphosphate (ATP) ([γ-33P]) (NEN Perkin Elmer, Wellesley, Mass.) is the source of radiolabel for all kinase reactions. Activated Raf-1 (truncated) and activated MAPKinase 2/ERK2 can be purchased from Upstate, Inc. (Lake Placid, N.Y.). 4-20% Criterion Precast gels can be purchased from Bio-Rad (Hercules, Calif.).
Determination of enzymatic activity: Compounds are diluted from dimethylsulfoxide (DMSO) stocks into 1×HMNDE (20 mM HEPES pH 7.2, 1 mM MgCl2, 100 mM NaCl, 1.25 mM DTT, 0.2 mM EDTA). A typical 25-microliter assay contained 0.002 nanomoles MEK1^CA, 0.02 nanomoles ERK2, 0.25 nanomoles MBP, 0.25 nanomoles unlabeled ATP, and 0.1 μCi [γ33P] ATP. The screening assay essentially comprises four additions. Five μl of diluted compound are dispensed to 96-well assay plates. Ten μl of 2.5× enzyme cocktail (MEK1^CA and ERK2 only) are then added to each well followed by a preincubation for 30 minutes at ambient temperature. Ten μl of 2.5× substrate cocktail (labeled and unlabeled ATP plus MBP) are then added, followed by incubation for 60 minutes at ambient temperature. Finally, 100 μl of 10% trichloroacetic acid (TCA) are added and incubated for 30 minutes at room temperature to halt the reaction and precipitate radiolabeled protein products. Reaction products are harvested on glass fiber 96 well filter plates prewetted with water and 1% pyrophosphate. The filter plate is then washed 5 times with water. Water is displaced by absolute ethanol and the plate is allowed to air dry for 30 minutes at room temperature. A back seal is applied manually and 40 μl of scintillation cocktail are dispensed to each well. A top seal is applied and the plate is counted in the TopCount for two seconds per well.

T1 sequence (Q02750 whole entry S218D/S222D): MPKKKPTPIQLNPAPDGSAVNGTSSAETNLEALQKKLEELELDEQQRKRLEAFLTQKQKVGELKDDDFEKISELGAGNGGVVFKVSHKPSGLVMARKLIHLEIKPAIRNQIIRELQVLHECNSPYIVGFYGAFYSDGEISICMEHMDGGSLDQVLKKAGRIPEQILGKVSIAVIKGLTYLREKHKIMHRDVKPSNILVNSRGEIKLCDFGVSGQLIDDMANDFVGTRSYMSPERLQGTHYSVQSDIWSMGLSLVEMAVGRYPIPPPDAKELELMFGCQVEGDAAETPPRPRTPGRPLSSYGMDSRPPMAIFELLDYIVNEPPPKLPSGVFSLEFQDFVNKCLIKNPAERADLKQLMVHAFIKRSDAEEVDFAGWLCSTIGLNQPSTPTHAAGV

As a reminder, the EC50 is the midpoint of the concentration-response curve. A low value points to greater potency. As usually defined, the IC50 is the concentration needed to halve the response being measured. The compound `Cn1cnc2c(F)c(Nc3ccc(I)cc3F)c(NS(=O)(=O)C3(CCO)CC3)cc21` [Example 2, N-(4-fluoro-5-(2-fluoro-4-iodophenylamino)-1-methyl-1H-benzo[d]imidazol-6-yl)-1-(2-hydroxyethyl)cyclopropane-1-sulfonamide] returned an EC50 in assay [1] of 1 to 10 nM. This compound displayed an IC50 in assay [2] of 10 to 100 nM.
`Cc1noc2c(F)c(Nc3ccc(I)cc3F)c(NS(=O)(=O)C3CC3)cc12` [Example 3, N-(7-fluoro-6-(2-fluoro-4-iodophenylamino)-3-methylbenzo[d]isoxazol-5-yl)cyclopropanesulfonamide]: the EC50 in assay [1] fell in the range of 1 to 10 nM. For the same compound, the concentration for half-maximal inhibition (IC50) in assay [2] was 10 to 100 nM.
Regarding `Cc1noc2c(F)c(Nc3ccc(I)cc3F)c(NS(=O)(=O)C3(CCO)CC3)cc12` [Example 4, 1-(2-hydroxyethyl)-N-(7-fluoro-6-(2-fluoro-4-iodophenylamino)-3-methylbenzo[d]isoxazol-5-yl)cyclopropane-1-sulfonamide], the 50% effective concentration (EC50) in assay [1] is 1 to 10 nM. Further, in assay [2], the IC50 was in the range of 10 to 100 nM.
As for `Cc1noc2c(F)c(Nc3ccc(I)cc3F)c(NS(=O)(=O)C3(CC(O)CO)CC3)cc12` (centres unmarked) [Example 5, 1-(2,3-dihydroxypropyl)-N-(7-fluoro-6-(2-fluoro-4-iodophenylamino)-3-methylbenzo[d]isoxazol-5-yl)cyclopropane-1-sulfonamide], the EC50 in assay [1] lay in the range of 0.1 to 1 nM. The same compound gave an IC50 in assay [2] of 1 to 10 nM.
As to `Cc1noc2c(F)c(Nc3ccc(Br)cc3Cl)c(NS(=O)(=O)C3CC3)cc12` [Example 6, N-(7-fluoro-6-(4-bromo-2-chlorophenylamino)-3-methylbenzo[d]isoxazol-5-yl)cyclopropanesulfonamide], the half-maximal effective concentration (EC50) in assay [1] was in the range of 1 to 10 nM. For the same compound, the IC50 in assay [2] is 100 to 1000 nM.
Taken in the same sequence, the figures for `Cc1onc2c(F)c(Nc3ccc(I)cc3F)c(NS(=O)(=O)C3CC3)cc12` [Example 7, N-(7-fluoro-6-(2-fluoro-4-iodophenylamino)-3-methylbenzo[c]isoxazol-5-yl)cyclopropanesulfonamide] were 10 to 100 nM and 10 to 100 nM.
Taken in the same sequence, the figures for `O=S(=O)(Nc1cn2ccnc2c(Cl)c1Nc1ccc(Br)cc1Cl)C1CC1` [Example 9, N-(7-(4-bromo-2-chlorophenylamino)-8-chloroimidazo[1,2-a]pyridin-6-yl)cyclopropanesulfonamide] were 10 to 100 nM and 100 to 1000 nM.
In turn, `O=S(=O)(Nc1cn2ccnc2c(Cl)c1Nc1ccc(Br)cc1Cl)C1(CCO)CC1` [Example 10, N-(7-(4-bromo-2-chlorophenylamino)-8-chloroimidazo[1,2-a]pyridin-6-yl)-1-(2-hydroxyethyl)cyclopropane-1-sulfonamide] yielded a 50% effective concentration (EC50) in assay [1] of 10 to 100 nM. Also, the half-maximal inhibitory concentration (IC50) in assay [2] was in the range of 100 to 1000 nM.
In turn, `O=S(=O)(Nc1cn2ccnc2c(Cl)c1Nc1ccc(I)cc1F)C1(CCO)CC1` [Example 12, N-(8-chloro-7-(2-fluoro-4-iodophenylamino)imidazo[1,2-a]pyridin-6-yl)-1-(2-hydroxyethyl)cyclopropane-1-sulfonamide] gave an EC50 in assay [1] of 1 to 10 nM. In addition, the half-maximal inhibitory concentration (IC50) in assay [2] fell in the range of 10 to 100 nM.
Compound `Cc1c(Nc2ccc(I)cc2F)c(NS(=O)(=O)C2CC2)cn2ccnc12` [Example 14, N-(7-(2-fluoro-4-iodophenylamino)-8-methylimidazo[1,2-a]pyridin-6-yl)cyclopropanesulfonamide] returned an EC50 in assay [1] of 0.1 to 1 nM. The compound also showed an IC50 in assay [2] of 10 to 100 nM.
As to `Cc1c(Nc2ccc(I)cc2F)c(NS(=O)(=O)C2(CC(O)CO)CC2)cn2ccnc12` (centres unmarked) [Example 16, 1-(2,3-dihydroxypropyl)-N-(7-(2-fluoro-4-iodophenylamino)-8-methylimidazo[1,2-a]pyridin-6-yl)cyclopropane-1-sulfonamide], the EC50 in assay [1] was 10 to 100 nM. The compound also came in with a half-maximal inhibitory concentration (IC50) in assay [2] of 10 to 100 nM.
Compound `Cc1c(Nc2ccc(Br)cc2Cl)c(NS(=O)(=O)C2CC2)cn2ccnc12` [Example 17, N-(7-(4-bromo-2-chlorophenylamino)-8-methylimidazo[1,2-a]pyridin-6-yl)cyclopropanesulfonamide] displayed an EC50 in assay [1] of 10 to 100 nM. For the same compound, in assay [2], the half-maximal inhibitory concentration (IC50) lay within 100 to 1000 nM.
In turn, `Cc1c(Nc2ccc(Br)cc2Cl)c(NS(=O)(=O)C2(CCO)CC2)cn2ccnc12` [Example 18, N-(7-(4-bromo-2-chlorophenylamino)-8-methylimidazo[1,2-a]pyridin-6-yl)-1-(2-hydroxyethyl)cyclopropane-1-sulfonamide] yielded an EC50 in assay [1] of 10 to 100 nM. Also, the half-maximal inhibitory concentration (IC50) in assay [2] fell in the range of 1000 to 10000 nM.
On the same counts, the results for `Cc1c2cc(NS(=O)(=O)C3CC3)c(Nc3ccc(I)cc3F)c(F)c2nn1C` [Example 29, N-(6-(2-fluoro-4-iodophenylamino)-7-fluoro-2,3-dimethyl-2H-indazol-5-yl)cyclopropanesulfonamide] are 1 to 10 nM and 1000 to 10000 nM.
In the case of `Cc1nn(C)c2c(F)c(Nc3ccc(I)cc3F)c(NS(=O)(=O)C3CC3)cc12` [Example 30, N-(6-(2-fluoro-4-iodophenylamino)-7-fluoro-1,3-dimethyl-1H-indazol-5-yl)cyclopropanesulfonamide], the EC50 in assay [1] was in the range of 100 to 1000 nM. Further, the concentration for half-maximal inhibition (IC50) in assay [2] was in the range of 10000 to 50000 nM.
Consider `Cc1ncnc2c(F)c(Nc3ccc(I)cc3F)c(NS(=O)(=O)C3CC3)cc12` [Example 34, N-(7-(2-fluoro-4-iodophenylamino)-8-fluoro-4-methylquinazolin-6-yl)cyclopropanesulfonamide], for which the EC50 in assay [1] fell in the range of 100 to 1000 nM. Also, the IC50 in assay [2] fell in the range of 10000 to 50000 nM.
